# From US10463592B2, “Peptide with anti-aging effect and use thereof” (Osaka University, priority 2013, dated 2019)
# Tests used:
# [1] = tested on: human monocytic cell line THP-1; assay: Sensitization test by the h-CLAT assay (overall evaluation); assay type: cell-based; settings: even at high concentrations; positive if RFI of CD86>150 and RFI of CD54>200; 24 hours
# Method: Into a 75-cm^2 flask was placed 50 mL of a suspension of the human monocytic cell line THP-1 (JCRB accession number: JCRB0112) at a density of 2.0×10^5 cells/mL in RPMI 1640 culture medium containing 10% FBS and 0.05 mM mercaptoethanol. The cells were precultured for 48 hours. The precultured THP-1 cells were harvested by centrifugation and suspended at 2.0×10^6 cells/mL in RPMI 1640 culture medium containing 10% FBS and 0.05 mM mercaptoethanol. To each well of 24-well plates, 500 μL of the cell suspension was seeded. To each well containing the seeded cell suspension, 500 μL of each peptide in the same culture medium was added. […] Then, 1×10^4 living cells were analyzed by flow cytometry to determine the expression levels of the cell surface antigens. […] The relative fluorescence intensities (RFIs) were calculated from the mean of the measured fluorescence intensities (MFIs) in accordance with the following equation.
# From the survival rates and the RFI values of CD86 and CD54 expressions, the sensitization potentials were evaluated. The sensitization potentials of the test samples were determined to be positive when the RFIs of the antigen expressions in the sample treatment groups satisfy the following equations: the RFI of CD86>150, and the RFI of CD54>200. […]
# NHDF (NB) cells = assay: Hyaluronic acid production by fibroblasts, ELISA; assay type: cell-based, human; settings: for Hyaluronic acid production (% of control): highest value over 3, 10, 30, 100 and 300 μM, 5 days
# Method: The amount of the hyaluronic acid production by fibroblasts was determined by ELISA. As a control, a group containing no peptide was used. NHDF (NB) cells were seeded in 24-well plates and cultured overnight (2×10^4 cells/500 μL per well). The culture medium used was Medium 106 (containing 1% FBS without growth supplements). Twenty hours after cell seeding, 500 μL of a solution of each peptide in the culture medium was added to each well to a final peptide concentration of 3, 10, 30, 100 or 300 μM. To control wells, 500 μL of the culture medium alone was added. The cells were cultured in a 5% CO2 incubator at 37° C. for 5 days. After the culture, the culture supernatant was transferred into a 1.5-mL tube and centrifuged at 15,000 rpm at 4° C. for 5 minutes, and the supernatant was harvested in a fresh tube. The amount of hyaluronic acid in the culture supernatant was determined using QnE Hyaluronic Acid (HA) ELISA Assay (Biotech Trading Partners) in accordance with the kit protocol. The percent hyaluronic acid production was calculated as the ratio (%) of the ELISA absorbance of each peptide addition group to that of the control group. The effect of promoting hyaluronic acid production was evaluated on the basis of the percent hyaluronic acid production.
# The examination was conducted in the same manner as in Example 4 except that the percent hyaluronic acid production was determined as follows: the amount of hyaluronic acid was quantified from the ELISA calibration curve and the quantified value was used to calculate the ratio (%) of the amount of the hyaluronic acid production of each peptide addition group to that of the control group.
# [2] = tested on: Normal human dermal fibroblasts (NHDF); assay: Fibroblast growth-promoting activity, Cell Counting Kit (WST-1); assay type: cell-based; settings: for Fibroblast growth (% of control): NHDF, 2 days culture, WST-1
# Method: The fibroblast growth-promoting activity of the peptides was determined using Cell Counting Kit (WST-1) (Dojindo Laboratories). As a control, a group containing no peptide was used. Normal human dermal fibroblasts (from newborns) (Kurabo Industries Ltd., hereinafter called NHDF) were seeded in 96-well plates (0.5×10^4 cells/100 μL per well). The culture medium used was Medium 106 (containing 1% FBS without growth supplements). About 3 hours after cell seeding, 100 μL of a solution of each peptide in the culture medium was added to a final peptide concentration of 0.3, 1, 3, 10, or 30 μM. To control wells, 100 μL of the culture medium alone was added. To blank wells containing no cells, 200 μL of the culture medium alone was added. The cells were cultured in a CO2 incubator for 2 days. After the culture, 20 μL of the WST-1 reagent was added to each well and the plates were allowed to stand in a CO2 incubator for about 2 to 4 hours. The absorbance at 450 nm and 620 nm was determined with a microplate reader (Wallac 1420 ARVOsx (program: WST-1)), and the measured values were corrected by the equation: OD450-OD620. The net OD450 was calculated by subtracting the mean OD450-OD620 of the blank wells from the OD450-OD620 of the test wells. The percent fibroblast growth was calculated as the ratio (%) of the net OD450 of each peptide addition group to that of the control group. The effect of promoting fibroblast growth was evaluated on the basis of the percent fibroblast growth.
# The examination was conducted in the same manner as in Example 2 except that the concentration of each peptide was set at 3, 10, 30, 100 or 300 μM.
# [3] = Example 4, 3 to 300 μM, ELISA absorbance ratio
# [4] = ratio of ELISA absorbance (Example 4)
# [5] = highest value over 0.3, 1, 3, 10 and 30 μM
# [6] = Example 5, 3 to 300 μM, ELISA calibration curve
# [7] = amount quantified from ELISA calibration curve (Example 5)
# [8] = at concentrations of 0.3 to 30 μM (Example 2)
# [9] = at concentrations of 30 to 300 μM (Example 3)
# [10] = highest value over 3, 10, 30, 100 and 300 μM
Substance,sensitization potential [1],increase of hyaluronic acid production by fibroblasts (NHDF (NB) cells; [3]),Hyaluronic acid production (% of control) (NHDF (NB) cells; [4]),"Fibroblast growth (% of control) [2, 5]",increase of hyaluronic acid production by fibroblasts (NHDF (NB) cells; [6]),Hyaluronic acid production (% of control) (NHDF (NB) cells; [7]),"effect of promoting fibroblast growth [2, 8]","effect of promoting fibroblast growth [2, 9]","Fibroblast growth (% of control) [2, 10]"
"Ac-HRLKR-NH2 [OSK-9, HRLKR]",negative,,,,,,,,
ELKLI (Ac-ELKLI-NH2) [OSK-2],,increased the amount of the hyaluronic acid production by fibroblasts,184.0 % of control,99.7 % of control,,,,,
ELKLIFLHRLKRLRKRLKRK (Ac-ELKLIFLHRLKRLRKRLKRK-NH2) [OSK-1],,,,146.4 % of control,increased the amount of the hyaluronic acid production by fibroblasts,2715.8 % of control,exhibited the effect of promoting fibroblast growth,exhibited the effect of promoting fibroblast growth,144.9 % of control
FLHRL (Ac-FLHRL-NH2) [OSK-7],,,75.2 % of control,96.8 % of control,,,,,
HRLKR [OSK-20],,,,,,94.0 % of control,,,
KLIFL (Ac-KLIFL-NH2) [OSK-4],,increased the amount of the hyaluronic acid production by fibroblasts,212.4 % of control,102.6 % of control,,,exhibited the effect of promoting fibroblast growth,,
KRLKR (Ac-KRLKR-NH2) [OSK-16],,increased the amount of the hyaluronic acid production by fibroblasts,110.6 % of control,106.1 % of control,,,exhibited the effect of promoting fibroblast growth,,
KRLRK (Ac-KRLRK-NH2) [OSK-12],,,72.0 % of control,100.3 % of control,,,exhibited the effect of promoting fibroblast growth,,
LHRLK (Ac-LHRLK-NH2) [OSK-8],,increased the amount of the hyaluronic acid production by fibroblasts,110.5 % of control,98.8 % of control,,,,,
LIFLH (Ac-LIFLH-NH2) [OSK-5],,,65.6 % of control,97.6 % of control,,,,,
LKLIF (Ac-LKLIF-NH2) [OSK-3],,,79.9 % of control,104.7 % of control,,,exhibited the effect of promoting fibroblast growth,,
LKR [OSK-19] (Ac-Leu-Lys-Arg-NH2),,,,,increased the amount of the hyaluronic acid production by fibroblasts,117.6 % of control,,,
LKR [OSK-23],,,,,increased the amount of the hyaluronic acid production by fibroblasts,113.7 % of control,,,
LKRLR [OSK-11],,increased the amount of the hyaluronic acid production by fibroblasts,112.1 % of control,112.5 % of control,increased the amount of the hyaluronic acid production by fibroblasts,255.0 % of control,exhibited the effect of promoting fibroblast growth,exhibited the effect of promoting fibroblast growth,158.5 % of control
LRKRL (Ac-LRKRL-NH2) [OSK-14],,increased the amount of the hyaluronic acid production by fibroblasts,123.6 % of control,106.8 % of control,,,exhibited the effect of promoting fibroblast growth,,
RKRLK (Ac-RKRLK-NH2) [OSK-15],,increased the amount of the hyaluronic acid production by fibroblasts,103.9 % of control,102.9 % of control,,,exhibited the effect of promoting fibroblast growth,,
RLKR [OSK-18] (Ac-RLKR-NH2),,,,,increased the amount of the hyaluronic acid production by fibroblasts,131.9 % of control,,,
RLKR [OSK-22],,,,,increased the amount of the hyaluronic acid production by fibroblasts,101.1 % of control,,,
RLKRK (Ac-RLKRK-NH2) [OSK-17],,,81.8 % of control,104.2 % of control,,,exhibited the effect of promoting fibroblast growth,,
RLKRL [OSK-10],,increased the amount of the hyaluronic acid production by fibroblasts,198.2 % of control,116.2 % of control,increased the amount of the hyaluronic acid production by fibroblasts,409.1 % of control,exhibited the effect of promoting fibroblast growth,exhibited the effect of promoting fibroblast growth,149.9 % of control
RLKRL [OSK-21],,,,,increased the amount of the hyaluronic acid production by fibroblasts,109.3 % of control,,,
RLRKR (Ac-RLRKR-NH2) [OSK-13],,,74.3 % of control,99.3 % of control,,,,,
